Data as given in patent US6815448B2, “Azaheterocyclylmethyl derivatives of 7,8-dihydro-1,6,9-trioxa-3-aza-cyclopenta[a]naphthalene as 5-HT1A antagonists” (Wyeth, priority 2001, dated 2004).
Structures can show the parent of a compound that is named as a salt. Where two headings read alike, the source gives them in different places.

How the values were obtained:
[1] = target: T1, cloned human 5-HT1A receptors (Homo sapiens, UniProt P08908); assay: 35S-GTPγS binding assay, reversal of the standard agonist 8-OH-DPAT; format: biochemical; details: for 5-HT1A Function Imax (maximum inhibitory effect): value in parentheses
T1 construct: expressed in transfected cells
T1 sequence (P08908 1-422): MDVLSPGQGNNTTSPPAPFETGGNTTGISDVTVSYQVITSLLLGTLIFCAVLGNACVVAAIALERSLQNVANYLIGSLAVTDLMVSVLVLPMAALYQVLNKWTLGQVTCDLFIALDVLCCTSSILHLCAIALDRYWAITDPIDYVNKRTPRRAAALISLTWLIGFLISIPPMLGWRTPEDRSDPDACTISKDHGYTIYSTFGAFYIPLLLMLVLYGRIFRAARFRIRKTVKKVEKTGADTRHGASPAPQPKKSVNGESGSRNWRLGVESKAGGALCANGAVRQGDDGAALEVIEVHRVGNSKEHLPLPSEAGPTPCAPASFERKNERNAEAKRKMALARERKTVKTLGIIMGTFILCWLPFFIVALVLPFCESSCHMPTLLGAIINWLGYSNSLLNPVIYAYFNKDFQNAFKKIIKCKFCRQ
Method: Antagonist activity at 5-HT1A receptors was established by using a ^35S-GTPγS binding assay similar to that used by Lazareno and Birdsall (Br. J. Pharmacol. 109: 1120, 1993), in which the test compound's ability to affect the binding of ^35S-GTPγS to membranes containing cloned human 5-HT1A receptors was determined. Agonists produce an increase in binding whereas antagonists produce no increase but rather reverse the effects of the standard agonist 8-OH-DPAT. The test compound's maximum inhibitory effect is represented as the Imax, while its potency is defined by the IC50.

human 5-HT1A receptors = target: T2, human 5-HT1A receptors (Homo sapiens, UniProt P08908); assay: [3H] 8-OH-DPAT displacement from 5-HT1A receptor; format: binding; details: CHO cells stably transfected with human 5-HT1A receptors, read-out: 5-HT1A Receptor Affinity KI
T2 construct: expressed in transfected cells; host or cells: CHO cells
T2 sequence (P08908 1-422): T1 sequence (P08908 1-422)
Description: High affinity for the serotonin 5-HT1A receptor was established by testing the claimed compound's ability to displace [^3H] 8-OH-DPAT (dipropylaminotetralin) from the 5-HT1A serotonin receptor following a modification of the procedure of Hall et al. J. Neurochem. 44, 1685 (1985) which utilizes CHO cells stably transfected with human 5-HT1A receptors.

[2] = 35S-GTPγS binding, membranes with cloned human 5-HT1A receptors, antagonist potency, read-out: 5-HT1A Function IC50

Structure (SMILES)	melting point [°C]	IC50 [1, 2] [µM]	5-HT1A Function Imax (maximum inhibitory effect) ([1]; 35S-GTPγS binding)	Ki (human 5-HT1A receptors) [µM]	IC50 [1] [µM]
Cc1nc2ccc3c(c2o1)OC(CN1CCC2(CC1)C(=O)NCN2c1ccccc1)CO3 (centres unmarked) (as salt: fumarate) [Example 1, 8-(2-Methyl-7,8-dihydro-1,6,9-trioxa-3-aza-cyclopenta[a]naphthalen-8-ylmethyl)-1-phenyl-1,3,8triazaspiro[4.5]decan-4-one]	240				
Cc1nc2ccc3c(c2o1)OC(CN1CCC(C(=O)c2ccc(F)cc2)CC1)CO3 (centres unmarked) (as salt: fumarate) [Example 4, (4-Fluorophenyl) (1-[2-methyl-7,8-dihydro-1,6,9-trioxa-3-aza-cyclopenta[a]naphthalen-8-ylmethyl]-4-piperidinyl)methanone]	229 to 230				
Cc1nc2ccc3c(c2o1)O[C@@H](CN1CC=C(c2cccc(C(F)(F)F)c2)CC1)CO3 (as salt: fumarate) [Example 5]	170 to 173				
Cc1nc2ccc3c(c2o1)OC(CN1CCCCC1)CO3 (centres unmarked) (as salt: fumarate) [Example 6, 2-Methyl-8-(piperidin-1-ylmethyl)-7,8-dihydro-1,6,9-trioxa-3-aza-cyclopenta[a]naphthalene]	109 to 112				
Cc1nc2ccc3c(c2o1)OC(CN1CCC2(CC1)C(=O)NCN2c1ccccc1)CO3 (centres unmarked) [Example 1, 8-(2-Methyl-7,8-dihydro-1,6,9-trioxa-3-aza-cyclopenta[a]naphthalen-8-ylmethyl)-1-phenyl-1,3,8triazaspiro[4.5]decan-4-one]		1.05	60.0	0.00093	
Cc1nc2ccc3c(c2o1)OC(CN1CCC(n2c(=O)[nH]c4ccccc42)CC1)CO3 (centres unmarked) [Example 2, 1-[1-(2-Methyl-7,8-dihydro-1,6,9-trioxa-3-aza-cyclopenta[a]naphthalen-8-ylmethyl)-piperidin-4-yl]-1,3-dihydro-2H-benzimidazol-2-one]	218 to 220		42.0	0.001	0.0027
Cc1nc2ccc3c(c2o1)OC(CN1CCC(O)(c2cccc(C(F)(F)F)c2)CC1)CO3 (centres unmarked) [Example 3, 1-(2-Methyl-7,8-dihydro-1,6,9-trioxa-3-aza-cyclopenta[a]naphthalen-8-ylmethyl)-4-[3-(trifluoromethyl)phenyl]-4-piperidinol]	148 to 151		47.0 (47.0)	0.00652	0.047
Cc1nc2ccc3c(c2o1)OC(CN1CCC(C(=O)c2ccc(F)cc2)CC1)CO3 (centres unmarked) [Example 4, (4-Fluorophenyl) (1-[2-methyl-7,8-dihydro-1,6,9-trioxa-3-aza-cyclopenta[a]naphthalen-8-ylmethyl]-4-piperidinyl)methanone]				0.202	
Cc1nc2ccc3c(c2o1)O[C@@H](CN1CC=C(c2cccc(C(F)(F)F)c2)CC1)CO3 [Example 5]		0.798	97.0	0.0394	
Cc1nc2ccc3c(c2o1)OC(CN1CCCCC1)CO3 (centres unmarked) [Example 6, 2-Methyl-8-(piperidin-1-ylmethyl)-7,8-dihydro-1,6,9-trioxa-3-aza-cyclopenta[a]naphthalene]				0.173	
